Data as given in a melting point compilation (Tetko et al.; mined from patent text by program, amines drawn as free bases though some values may be those of a salt).

First: CCCN(CCCNc1c(Cl)cn[nH]c1=O)CCOc1cccc2c1OCCO2
Second: Cn1ncc(Cl)c(NCCCO)c1=O
The melting point of the first is higher: 87 to 89 °C for the first, 65 to 66 °C for the second.

First: CS[C@H]([C@@H](C)C(=O)O)[C@@H]1CCCN1C(=O)OC(C)(C)C
Second: CC(CCCC1(C(=O)NCC(F)(F)F)c2ccccc2-c2ccccc21)N1CCC(NC(=O)OC(C)(C)C)CC1 (stereo not drawn)
The melting point of the first is higher: 141 to 142 °C for the first, 58 to 60 °C for the second.

Compared with `CC(=S)NC[C@H]1CN(c2ccc(N3CCN(C(=O)CO)CC3)c(F)c2)C(=O)O1`, `CCOc1ccnc(N2CCN(C(=O)c3ccccc3C#N)CC2)n1` is lower in melting point: 163 to 165 °C for the first, 151 to 154 °C for the second.

First: COc1ccc2c(c1)c(Cc1nc(-c3ccc(Br)cc3)cs1)c(C)n2Cc1ccc(Br)cc1
Second: COc1ccc(S(=O)(=O)N(Cc2cccnc2)c2c(C(=O)O)cnc3c2c(C)nn3-c2ccccc2)cc1
The melting point of the first is lower: 178 to 179 °C for the first, 192 to 194 °C for the second.

First: Cc1ccc(NS(=O)(=O)c2cccs2)c2[nH]c(C3=NCCS3)cc12
Second: Cn1c(-c2ccc3ccccc3c2)nnc1S(C)(=O)=O
The melting point of the first is lower: 198 to 199 °C for the first, 204 to 206 °C for the second.

First: CCOCc1cnc2c([N+](=O)[O-])cccc2c1Cl
Second: COC(=O)C(C#N)c1ccccc1[N+](=O)[O-] (stereo not drawn)
The melting point of the first is higher: 110 to 126 °C for the first, 58 to 60 °C for the second.

`O=S(=O)(Nc1ccc(Oc2ccc3cccnc3c2)cc1)c1ccc(Cl)cc1` and `Nc1ccc(Oc2ccc3ccc(Oc4ccc(N)c(O)c4)cc3c2)cc1O` cannot be ordered by melting point: 208 °C for the first, 201 to 210 °C for the second.

First: COc1ccccc1Oc1c(Cl)nc(-c2cccc(OCc3ccccc3)c2)nc1Cl
Second: FC(F)(F)c1cc(Br)c(OCc2ccccc2)c(OCc2ccccc2)c1
The melting point of the first is higher: 127 to 132 °C for the first, 79 to 80 °C for the second.

First: CC/C(=C(\c1ccc(/C=C/C(=O)O)cc1)c1ccc(OC(=O)COC)cc1)c1ccccc1
Second: COc1ccc(CC(NC(c2ccccc2)c2ccccc2)P(O)O)cc1OC (stereo not drawn)
The melting point of the first is lower: 190 to 191 °C for the first, 205 °C for the second.

Compared with `CCCCc1ccc(CN(CCC(C)(C)C)C(=O)Nc2c(C)cc(Cl)cc2C)cc1`, `CCCCCCCCCCc1ccc(NC(=O)c2cc(Cl)cc(Cl)c2O)cc1` is lower in melting point: 138 to 139 °C for the first, 90 to 91 °C for the second.

First: COc1ccoc1C1OC(=O)NC1=O (stereo not drawn)
Second: COc1ccc2ccccc2c1/C=C/NC=O
The melting point of the first is lower: 102 to 104 °C for the first, 160 to 162 °C for the second.

First: O=C(c1ccccc1F)C1(O)CCNCC1
Second: CN1CCNC1=NC(=S)Nc1ccccc1
The melting point of the first is lower: 133 to 135 °C for the first, 205 to 208 °C for the second.

`CC(=O)OC1CSC(Oc2ccc(-c3cccs3)nc2)C(OC(C)=O)C1OC(C)=O` (stereo not drawn) and `NC(=O)c1cc(OCCNCC(O)c2ccccc2)ccc1O` (stereo not drawn) cannot be ordered by melting point: 172 °C for the first, 166 to 172 °C for the second.

First: O=S(=O)(c1ccc(F)cc1)n1ccc2ccccc21
Second: O=C(O)c1cccc(=O)n1OCc1ccccc1
The melting point of the first is lower: 135 to 137 °C for the first, 176 to 177 °C for the second.

First: CCOC(=O)Cc1cc(OC)c2c(c1)C1(O)C(=O)c3ccccc3C1(O)O2 (stereo not drawn)
Second: CCOC(=O)C1=C(C)NC(c2nccn2Cc2ccccc2)=NC1c1ccc(F)cc1Cl (stereo not drawn)
The melting point of the first is higher: 133 to 136 °C for the first, 114 to 117 °C for the second.

Compared with `CSc1ccc(NC(=O)N(C)O)cc1C(F)(F)F`, `Cc1nccn1Cc1ccc(NC(=O)C(F)(F)F)cc1C(F)(F)F` is higher in melting point: 125 °C for the first, 229 to 230 °C for the second.

First: CCCCc1nc2ccc(NC(=O)C3CCCCC3C(=O)O)cc2n1Cc1ccc(-c2ccccc2C(=O)O)cc1 (stereo not drawn)
Second: O=c1ccc(-c2c(-c3ccccc3)nn3ccccc23)nn1C1CCCCC1=Cc1nnn[nH]1 (stereo not drawn)
The melting point of the first is higher: 186 to 188 °C for the first, 129 to 131 °C for the second.

First: CCOP1(=S)OCc2cc(C)cnc2O1 (stereo not drawn)
Second: CCOC(=S)c1c(C)nc2sccn12
The melting point of the first is lower: 54 to 55 °C for the first, 133 to 135 °C for the second.

First: CCc1cc(Cc2cc(CC)c(N=C=O)c(CC)c2)cc(CC)c1N=C=O
Second: CCOC(=S)c1c(CC)nc(C)nc1NCCc1ccc(OC)c(OC)c1
The melting point of the first is higher: 56 to 57 °C for the first, 52 to 53 °C for the second.

Compared with `CCCCC(=O)c1c(C)nc2cc(OC)c(OC)cc2c1-c1ccc(OC)c(OC)c1`, `COc1cc(OC)c(C(=O)N2CCc3cc(O)ccc3C2)cc1OC` is higher in melting point: 119 to 120 °C for the first, 180 to 188 °C for the second.

First: Clc1ccc(-c2ccc(CBr)cc2)cc1
Second: ClC(=NNc1ccc(Br)cc1)c1ccc(Cl)cc1
The melting point of the first is lower: 64 to 66 °C for the first, 142 to 144 °C for the second.

Compared with `CCOC(=O)N1CCc2cc(OC)c(OC)cc2CC1`, `COC(=O)c1cccc(CN2CCOc3ccc(N)cc32)c1` is higher in melting point: 91 to 93 °C for the first, 167 to 171 °C for the second.

Compared with `CC(C)N1C(=O)c2ccccc2C1CC(C)(C)O` (stereo not drawn), `C=CN1Cc2ccccc2-c2ccc(Cl)cc2C1=O` is higher in melting point: 82 to 84 °C for the first, 170 to 172 °C for the second.

First: N#CNC(=NC1CCN(CCCc2ccccc2)CC1)N1CCc2ccccc2C1
Second: COc1ccc2c(c1)C(N1CCN(C)CC1)c1ccccc1C=C2 (stereo not drawn)
The melting point of the first is higher: 122 to 124 °C for the first, 118 °C for the second.

First: CN(C)c1ncnc2c1ncn2Cc1c(F)cccc1Cl
Second: CNC1Cc2ccc(C(=O)Cn3cnc4cc(-c5ccc(Cl)cc5)sc4c3=O)cc2C1 (stereo not drawn)
The melting point of the first is lower: 134 to 135 °C for the first, 226 to 229 °C for the second.

Compared with `CC(=O)NC(Cc1ccc(Cl)c(Cl)c1)C(=O)CCc1cc(C(F)(F)F)cc(C(F)(F)F)c1` (stereo not drawn), `CON=Cc1nn(-c2c(Cl)cc(C(F)(F)F)cc2Cl)c(N)c1SC(F)(F)F` is higher in melting point: 124 to 126 °C for the first, 129 to 132 °C for the second.

First: CCCCCCCCCCCCc1nnc(C(C(=O)Nc2c(OC)cc(OC)cc2OC)c2ccccc2)o1 (stereo not drawn)
Second: COC(=O)CCCCC(=O)Nc1ccc2c3c(n(CCCNC(=O)OC(C)(C)C)c(=O)c2c1)-c1ccccc1C3=O
The melting point of the first is lower: 120 to 121 °C for the first, 143 to 145 °C for the second.

First: CC(=O)SCCc1nc[nH]n1
Second: CCOCC1N=NC(=S)N1C (stereo not drawn)
The melting point of the first is lower: 84 to 86 °C for the first, 137 to 138 °C for the second.

First: O=[N+]([O-])c1ccc2c(c1)C(c1ccccc1)=NCc1cc(CO)nn1-2
Second: CC1(C)N=C(Oc2ccnc(O)c2)c2cc(C#N)ccc2O1
The melting point of the first is lower: 192 to 194 °C for the first, 275 to 278 °C for the second.

Compared with `COc1cccc(OC2CN([C@H]3CC[C@@H](c4cc5ccccc5[nH]4)CC3)C2)c1`, `c1cc2c3c(c[nH]c3c1)CC1NCCCC21` (stereo not drawn) is higher in melting point: 126 to 127 °C for the first, 170 to 173 °C for the second.

First: Cc1cc(Oc2ccc(C(F)(F)F)cc2[N+](=O)[O-])n[nH]1
Second: OC(CCCN1CC=C(c2cc(C(F)(F)F)on2)CC1)c1ccc(F)cc1 (stereo not drawn)
The melting point of the first is lower: 89 to 91 °C for the first, 120 to 122 °C for the second.

First: CCCCCNC(=O)CC(=O)O
Second: CCC(C(=O)C(C)C(O)C(C)CCc1ccc(C)c(O)c1C(=O)O)C1OC(CC)(C2CCC(O)(CC)C(C)O2)CC1C (stereo not drawn)
The melting point of the first is lower: 67.5 to 68.5 °C for the first, 250 °C for the second.

Going from `Cc1cc(-c2cn[nH]c2N)ccn1` to `Cn1ncc(C(=O)N2CCC2)c1C(=O)Nc1ccn2nc(Br)nc2c1`, the melting point rises from 230 °C to greater than 250 °C.

Compared with `CC1(C)CCC2(CC1)CC(=O)N(CCCn1c(=O)sc3ccc(Cl)cc31)C2=O`, `CCCC=Cc1c(C(C)C)nc(C(C)C)c(CO)c1-c1cccc(Cl)c1` is lower in melting point: 159 to 160 °C for the first, 101 to 104 °C for the second.

First: Nc1cc(-n2cc(C(=O)O)c(=O)c3cc(F)c(F)c(Cl)c32)c(Cl)cc1F
Second: COc1c(N2CCNC(CF)(CF)C2)c(F)cc2c(=O)c(C(=O)O)cn(C3CC3F)c12 (stereo not drawn)
The melting point of the first is higher: 237 to 242 °C for the first, 164 to 166 °C for the second.

First: CCC(C)COc1ccc(-c2ccc(O)cc2)cc1Br (stereo not drawn)
Second: COC(=O)c1cn(C(c2ccccc2)(c2ccccc2)c2ccccc2)c(I)n1
The melting point of the first is lower: 75 to 76.5 °C for the first, 192 to 194 °C for the second.

Compound `CC(CO)CCCC(C)C1CCC2C3CC=C4CCCC(O)C4(C)C3CCC12C` (stereo not drawn) has a melting point of 158 to 160 °C.
